Data on 21 compounds can be found in patent publication US20210309685A1, “AMINO ACID SALTS OF NICOTINIC ACID MONONUCLEOTIDE AND NICOTINAMIDE MONONUCLOETIDE AS ANTI-AGEING AGENTS” (Life Biosciences, Inc., priority 2018, published 2021).

In this test the test system is COV434 cells. Description: NAD cell assay (NAD cycling method) in COV434 cells. In kind it is cell-based. To be noted: cellular NAD level, 200 uM, 4 hr, mole per mole versus parent NMN (NMN salts) or NaMN (NaMN salts), normalised to protein. How it is done: NAD levels were assayed based on the NAD cycling method of Zhu and Rand, PLoS One (2012), herein incorporated by reference. COV434 cells were maintained in 6 well plates and treated with the indicated compounds at a concentration of 200 uM for 4 hr. Media was removed, plates were washed in cold PBS and cells were scraped down in NAD extraction buffer containing 10 mM nicotinamide, 50 mM Tris HCl, 0.1% Triton X-100. Cells were homogenised by sonication for 5 seconds, and samples were centrifuged at 7,000 g for 5 min at 4 degrees. Aliquots were taken for later protein assay, and samples were then passed through 10 kDa amicon filters at 14,000 g, 30 min at 4 degrees to remove proteins from the sample. Each sample was measured in technical triplicate, with 25 μL sample added to 100 μL ADH cycling mix (0.2 mg/ml alcohol dehydrogenase enzyme, 2% ethanol, 100 mM Tris pH 8.5). Samples were allowed to cycle for 10 min at room temperature, followed by 50 μL addition of an MTT/PMS solution (0.1 mM phenazine methosulfate, 0.8 mM 3-(4,5-Dimethylthiazol-2-yl)-2,5-diphenyltetrazolium bromide), 100 mM Tris-HCl pH 8.5). Plates were then incubated for 15 min and absorbance was measured at 570 nm. NAD concentrations were extrapolated from a standard curve, and normalised to protein concentrations determined by BCA protein assay.
The adjusted fold increase is obtained through a direct comparison on a mole per mole basis between the compared salt and its parent counterpart. In other words, the instant salts derived from NMN parent molecule will only have their NAD activity level measured against NMN based on the same amount (mole) of salt tested in the cell. Likewise those salts derived from NaMN will have their NAD cell activity measured against NaMN. For example, the fold increase of compound I-002 is based on the NAD activity observed in a direct comparison for the same amount of mole of I-002 tested in the cell and that of the NMN parent. Similarly, the fold increase of I-003 is based on the direct comparison with NaMN.
Regarding `O=C([O-])c1ccc[n+]([C@@H]2O[C@H](COP(=O)(O)O)[C@@H](O)[C@H]2O)c1` [Compound I-001, (S)-1-Carboxy-2-methylpropan-1-aminium 1-((2R,3R,4S,5R)-5-(((hydrogenphosphonato)oxy)methyl)-3,4-dihydroxytetrahydrofuran-2-yl)pyridin-1-ium-3-carboxylate], the “FOLD increase adjusted for MW (compared to parent molecule)” value (shortened to “FOLD increase adjusted for MW”) is on record as 1.61 fold.
Then `NC(=O)c1ccc[n+]([C@@H]2O[C@H](COP(=O)([O-])O)[C@@H](O)[C@H]2O)c1` [Compound I-002, (S)-1-Carboxy-2-methylpropan-1-aminium ((2R, 3S, 4R, 5R)-5-(3-carbamoylpyridin-1-ium-1-yl)-3,4-dihydroxytetrahydrofuran-2-yl)methyl phosphate], with 1.24 fold.
Then `O=C([O-])c1ccc[n+]([C@@H]2O[C@H](COP(=O)(O)O)[C@@H](O)[C@H]2O)c1` [Compound I-003, (S)-4-Amino-1-carboxy-4-oxobutan-1-aminium 1-((2R3R,4S,5R)-5-(((hydrogenphosphonato)oxy)methyl)-3,4-dihydroxytetrahydrofuran-2-yl)pyridin-1-ium-3-carboxylate], with 1.89 fold; and `O=C([O-])c1ccc[n+]([C@@H]2O[C@H](COP(=O)(O)O)[C@@H](O)[C@H]2O)c1` [Compound I-004, Bis((S)-1-Carboxy-2-methylpropan-1-aminium)-1-((2R,3R,4S,5R)-3,4-dihydroxy-5-((phosphonatooxy)methyl)tetrahydrofuran-2-yl)pyridin-1-ium-3-carboxylate], with 1.99 fold; and `O=C([O-])c1ccc[n+]([C@@H]2O[C@H](COP(=O)(O)O)[C@@H](O)[C@H]2O)c1` [Compound I-005, Bis((S)-4-Amino-1-carboxy-4-oxobutan-1-aminium)-1-((2R,3R,4S,5R)-3,4-dihydroxy-5-((phosphonatooxy)methyl)tetrahydrofuran-2-yl)pyridin-1-ium-3-carboxylate], with 3.05 fold.
Then `O=C([O-])c1ccc[n+]([C@@H]2O[C@H](COP(=O)(O)O)[C@@H](O)[C@H]2O)c1` [Compound I-006, (S)-1-Carboxy-2-(1H-imidazol-4-yl)ethanaminium 1-((2R,3R,4S,5R)-5-(((hydrogenphosphonato)oxy)methyl)-3,4-dihydroxytetrahydrofuran-2-yl)pyridin-1-ium-3-carboxylate], with 1.64 fold; and `O=C([O-])c1ccc[n+]([C@@H]2O[C@H](COP(=O)(O)O)[C@@H](O)[C@H]2O)c1` [Compound I-008, Bis((S)-1-Carboxy-2-(1H-imidazol-4-yl)ethanaminium)-1-((2R,3R,4S,5R)-3,4-dihydroxy-5-((phosphonatooxy)methyl)tetrahydrofuran-2-yl)pyridin-1-ium-3-carboxylate], with 2.45 fold.
For the compound `O=C([O-])c1ccc[n+]([C@@H]2O[C@H](COP(=O)(O)O)[C@@H](O)[C@H]2O)c1` [Compound I-009, (S)-1-Carboxy-4-guanidinobutan-1-aminium 1-((2R,3R,4S,5R)-5-(((hydrogenphosphonato)oxy)methyl)-3,4-dihydroxytetrahydrofuran-2-yl)pyridin-1-ium-3-carboxylate], the “FOLD increase adjusted for MW” value was 2.03 fold.
The figure for `O=C([O-])c1ccc[n+]([C@@H]2O[C@H](COP(=O)(O)O)[C@@H](O)[C@H]2O)c1` [Compound I-011, (S)-1-Carboxy-2-(1H-indol-3-yl)ethanaminium 1-((2R,3R,4S,5R)-5-(((hydrogenphosphonato)oxy)methyl)-3,4-dihydroxytetrahydrofuran-2-yl)pyridin-1-ium-3-carboxylate] is 2.35 fold; for `NC(=O)c1ccc[n+]([C@@H]2O[C@H](COP(=O)([O-])O)[C@@H](O)[C@H]2O)c1` [Compound I-014, (S)-1-Carboxy-2-(1H-indol-3-yl)ethanaminium ((2R,3S,4R,5R)-5-(3-carbamoylpyridin-1-ium-1-yl)-3,4-dihydroxytetrahydrofuran-2-yl)methyl phosphate] it is 1.51 fold.
Then `O=C([O-])c1ccc[n+]([C@@H]2O[C@H](COP(=O)(O)O)[C@@H](O)[C@H]2O)c1` [Compound I-015, Bis((S)-1-Carboxy-4-guanidinobutan-1-aminium)-1-((2R,3R,4S,5R)-3,4-dihydroxy-5-((phosphonatooxy)methyl)tetrahydrofuran-2-yl)pyridin-1-ium-3-carboxylate], with 2.04 fold; and `O=C([O-])c1ccc[n+]([C@@H]2O[C@H](COP(=O)(O)O)[C@@H](O)[C@H]2O)c1` [Compound I-016, Bis((S)-1,3-Dicarboxypropan-1-aminium)-1-((2R,3R,4S,5R)-3,4-dihydroxy-5-((phosphonatooxy)methyl)tetrahydrofuran-2-yl)pyridin-1-ium-3-carboxylate], with 2.29 fold; and `O=C([O-])c1ccc[n+]([C@@H]2O[C@H](COP(=O)(O)O)[C@@H](O)[C@H]2O)c1` [Compound I-017, Bis((S)-1-Carboxy-2-(1H-indol-3-yl)ethanaminium)-1-((2R,3R,4S,5R)-3,4-dihydroxy-5-((phosphonatooxy)methyl)tetrahydrofuran-2-yl)pyridin-1-ium-3-carboxylate], with 2.40 fold.
The figure for `O=C(O)c1ccc[n+]([C@@H]2O[C@H](COP(=O)([O-])O)[C@@H](O)[C@H]2O)c1` [Compound I-020, Bis((1S,2R)-1-carboxy-2-hydroxypropan-1-aminium)-1-((2R,3R,4S,5R)-3,4-dihydroxy-5-((phosphonatooxy)methyl)tetrahydrofuran-2-yl)pyridin-1-ium-3-carboxylate] is 1.52 fold.
Regarding `NC(=O)c1ccc[n+]([C@@H]2O[C@H](COP(=O)([O-])O)[C@@H](O)[C@H]2O)c1` [Compound I-022, (S)-2-carboxypyrrolidin-1-ium ((2R,3S,4R,5R)-5-(3-carbamoylpyridin-1-ium-1-yl)-3,4-dihydroxytetrahydrofuran-2-yl)methyl phosphate], the “FOLD increase adjusted for MW” value is given as 1.33 fold.
As for `O=C([O-])c1ccc[n+]([C@@H]2O[C@H](COP(=O)(O)O)[C@@H](O)[C@H]2O)c1` [Compound I-026, Bis((S)-5-amino-5-carboxypentan-1-aminium)-1-((2R,3R,4S,5R)-3,4-dihydroxy-5-((phosphonatooxy)methyl)tetrahydrofuran-2-yl)pyridin-1-ium-3-carboxylate], the “FOLD increase adjusted for MW” value was determined as 2.47 fold.
On to `O=C(O)c1ccc[n+]([C@@H]2O[C@H](COP(=O)([O-])O)[C@@H](O)[C@H]2O)c1` [Compound I-027, (S)-1-carboxy-3-(methylthio)propan-1-aminium 1-((2R,3R,4S,5R)-5-(((hydrogenphosphonato)oxy)methyl)-3,4-dihydroxytetrahydrofuran-2-yl)pyridin-1-ium-3-carboxylate], for which the “FOLD increase adjusted for MW” value is 1.49 fold.
The figure for “(1S,2S)-1-Carboxy-2-methylbutan-1-aminium ((2R,3S,4R,5R)-5-(3-carbamoylpyridin-1-ium-1-yl)-3,4-dihydroxytetrahydrofuran-2-yl)methyl phosphate [Compound I-062]” is 1.32 fold; for “(R)-1-Carboxy-2-methylpropan-1-aminium 1-((2R,3R,4S,5R)-3,4-dihydroxy-5-((phosphonatooxy)methyl)tetrahydrofuran-2-yl)pyridin-1-ium-3-carboxylate [Compound I-065]” it is 1.54 fold.
Turning to “(S)-1-Carboxy-3-methylbutan-1-aminium 1-((2R,3R,4S,5R)-3,4-dihydroxy-5-((phosphonatooxy)methyl)tetrahydrofuran-2-yl)pyridin-1-ium-3-carboxylate [Compound I-058]”, the “FOLD increase adjusted for MW” value worked out at 1.81 fold.
The figure for “(S)-1-Carboxy-3-methylbutan-1-aminium ((2R,3S,4R,5R)-5-(3-carbamoylpyridin-1-ium-1-yl)-3,4-dihydroxytetrahydrofuran-2-yl)methyl phosphate [Compound I-059]” is 1.80 fold.
